According to PubChem BioAssay AID1259407 (Chemical Carcinogenesis Research Information System (CCRIS), 2018):
Active and inactive are the calls of the source. How the calls were made is not given here.

Test system: CCRIS mutagenicity, Ames/micronucleus/aberration tests
Assay: CCRIS mutagenicity studies
[1] = Test System: AMES SALMONELLA TYPHIMURIUM, Strain/Indicator: TA98, Metabolic Activation: NONE, Method: PREINCUBATION
[2] = Test System: AMES SALMONELLA TYPHIMURIUM, Strain/Indicator: TA100, Metabolic Activation: NONE, Method: PREINCUBATION
[3] = Test System: AMES SALMONELLA TYPHIMURIUM, Strain/Indicator: TA102, Metabolic Activation: NONE, Method: STANDARD PLATE
[4] = Test System: AMES SALMONELLA TYPHIMURIUM, Strain/Indicator: TA100, Metabolic Activation: NONE, Method: STANDARD PLATE

Measured: mutagenic call

CC(=O)CC(=O)Nc1ccc(C)cc1
inactive: [1] inactive; negative | Test System: AMES SALMONELLA TYPHIMURIUM, Strain/Indicator: TA98, Metabolic Activation: RAT, LIVER, S-9, PHENOBARBITAL AND BETA-NAPHTHOFLAVONE, Method: PREINCUBATION inactive; negative | [2] inactive; negative | Test System: AMES SALMONELLA TYPHIMURIUM, Strain/Indicator: TA100, Metabolic Activation: RAT, LIVER, S-9, PHENOBARBITAL AND BETA-NAPHTHOFLAVONE, Method: PREINCUBATION inactive; negative | Test System: AMES SALMONELLA TYPHIMURIUM, Strain/Indicator: TA102, Metabolic Activation: NONE, Method: PREINCUBATION inactive; negative | [3] inactive; negative | Test System: AMES SALMONELLA TYPHIMURIUM, Strain/Indicator: TA102, Metabolic Activation: RAT, LIVER, S-9, PHENOBARBITAL AND BETA-NAPHTHOFLAVONE, Method: PREINCUBATION inactive; negative | Test System: AMES SALMONELLA TYPHIMURIUM, Strain/Indicator: TA104, Metabolic Activation: NONE, Method: PREINCUBATION inactive; negative | Test System: AMES SALMONELLA TYPHIMURIUM, Strain/Indicator: TA104, Metabolic Activation: RAT, LIVER, S-9, PHENOBARBITAL AND BETA-NAPHTHOFLAVONE, Method: PREINCUBATION inactive; negative | Test System: AMES SALMONELLA TYPHIMURIUM, Strain/Indicator: TA1535, Metabolic Activation: NONE, Method: PREINCUBATION inactive; negative | Test System: AMES SALMONELLA TYPHIMURIUM, Strain/Indicator: TA1535, Metabolic Activation: RAT, LIVER, S-9, PHENOBARBITAL AND BETA-NAPHTHOFLAVONE, Method: PREINCUBATION inactive; negative | Test System: AMES SALMONELLA TYPHIMURIUM, Strain/Indicator: TA1537, Metabolic Activation: NONE, Method: PREINCUBATION inactive; negative | Test System: AMES SALMONELLA TYPHIMURIUM, Strain/Indicator: TA1537, Metabolic Activation: RAT, LIVER, S-9, PHENOBARBITAL AND BETA-NAPHTHOFLAVONE, Method: PREINCUBATION inactive; negative | Test System: AMES SALMONELLA TYPHIMURIUM, Strain/Indicator: TA2638, Metabolic Activation: NONE, Method: STANDARD PLATE inactive; negative | Test System: E. COLI, Strain/Indicator: WP2 (PKM101), Metabolic Activation: NONE, Method: STANDARD PLATE inactive; negative | Test System: E. COLI, Strain/Indicator: WP2 UVRA (PKM101), Metabolic Activation: NONE, Method: STANDARD PLATE inactive; negative | Test System: E. COLI, Strain/Indicator: WP2UVRA, Metabolic Activation: NONE, Method: PREINCUBATION inactive; negative | Test System: E. COLI, Strain/Indicator: WP2UVRA, Metabolic Activation: RAT, LIVER, S-9, PHENOBARBITAL AND BETA-NAPHTHOFLAVONE, Method: PREINCUBATION inactive; negative
active: Test System: E. COLI, Strain/Indicator: WP2UVRA/PKM101, Metabolic Activation: NONE, Method: PREINCUBATION active; positive

CCN(CCCl)c1ccc(-c2nc3ccc(-c4nc5ccc(N6CCN(C)CC6)cc5[nH]4)cc3[nH]2)cc1
inactive: Test System: AMES SALMONELLA TYPHIMURIUM, Strain/Indicator: TA98, Metabolic Activation: NONE, Method: STANDARD PLATE inactive; negative | [4] inactive; negative | [3] inactive; negative

Cc1ccc(S(=O)(=O)OC[C@@H]2CO2)cc1
active: [2] active; positive | [4] active; positive | Test System: AMES SALMONELLA TYPHIMURIUM, Strain/Indicator: TA100, Metabolic Activation: RAT, LIVER, S-9, PCB, Method: PREINCUBATION active; positive

Oc1cccc2ncccc12
inactive: [1] inactive; negative | [2] inactive; negative | [4] inactive; negative
active: Test System: AMES SALMONELLA TYPHIMURIUM, Strain/Indicator: TA98, Metabolic Activation: RAT, LIVER, S-9, Method: PREINCUBATION active; positive | Test System: AMES SALMONELLA TYPHIMURIUM, Strain/Indicator: TA100, Metabolic Activation: RAT, LIVER, S-9, AROCLOR 1254 (10% OR 20%), Method: STANDARD PLATE active; positive | Test System: AMES SALMONELLA TYPHIMURIUM, Strain/Indicator: TA100, Metabolic Activation: RAT, LIVER, S-9, Method: PREINCUBATION active; positive
